Experimental data published in article PMC11087268, “A folate inhibitor exploits metabolic differences in Pseudomonas aeruginosa for narrow-spectrum targeting” (Nature Microbiology, 2024).
Several values for one entry are separate records, joined by “and”; a condition that tells them apart may be missing. Identical values can stand only once. Like-named read-outs stand apart in the source and are kept apart here.

Key:
[1] = tested on: PA14 nfxB (T39P) and mexS (L46F) mutants; assay: Pyocyanin production; assay type: cell-based, Pseudomonas aeruginosa; conditions: for Pyocyanin production (Panel E): single replicates
Protocol: […] Cell-free supernatants were […] by centrifugation, and 100 μl were added to a 96-well plate in duplicate. The integrated absorbance spectrum from 306 to 326 nm was taken in a Tecan InfiniteM200 Pro plate reader to determine pyocyanin levels in each sample. A ΔpqsA sample was used to subtract out any background values, and pyocyanin levels were normalized by the ratio of OD600 between wildtype PA14 and the mutants to account for any slight differences in growth.

[2] = tested on: sheep red blood cells; assay: Haemolysis; assay type: cell-based; conditions: 1 h, vs Triton X-100 100% lysis
Protocol: Samples were treated at 37 °C with shaking for 1 h and then centrifuged. Supernatants were collected and absorbances were measured at 405 nm in a Tecan InfiniteM200 Pro microplate reader.

[3] = tested on: P. aeruginosa clinical isolates; assay type: cell-based, Pseudomonas aeruginosa; conditions: for clinical isolates resistant: 77 P. aeruginosa clinical isolates (55 CDC/FDA, 22 blood), 50 μg ml^−1, growth inhibition >80% = sensitive; for % Growth: 50ug/mL
Protocol: Percent growth was calculated by dividing the OD600 of fluorofolin antibiotic-treated wells by that of vehicle-only wells.

[4] = tested on: P. aeruginosa PA14; assay: Colony-forming units counting after antibiotic treatment; assay type: cell-based, Pseudomonas aeruginosa; conditions: 2× MIC (fluorofolin 6.2, TMP 250, polymixin B 4 μg ml^−1)
Protocol: P. aeruginosa PA14 overnight cultures were diluted 1:100 and grown to exponential phase (OD600 = 0.4–0.6). Cultures were diluted 1:10 and treated with antibiotic. At each time point, 150 μl of culture was removed, serial diluted 1:10 six times and plated onto LB agar plates. Plates were grown overnight at 37 °C, after which visible colonies were counted. C.f.u.s ml^−1 are reported from dilutions in which ~10–100 single colonies were visible.

Molecule: CCCCCCCc1[nH]c2ccccc2c(=O)c1O [PQS, Pseudomonas quinolone signal]
- Pyocyanin production (Panel E) ([1]; PA14, + 1 uM PQS): 15.8282 and 16.194 and 15.1165
- pyocyanin production of nfxB and mexS mutants ([1]; PQS 1 μM added at inoculation): partially rescued
- Pyocyanin production (Panel E) ([1]; PqsA KO, + 1 uM PQS): 17.5069 and 16.392 and 16.1857
- Pyocyanin production (Panel E) ([1]; mexS Mutant, + 1 uM PQS): 10.0838 and 9.877 and 13.1798
- Pyocyanin production (Panel E) ([1]; nfxB mutant, + 1 uM PQS): 8.219 and 6.016 and 7.118

Molecule: CC(C)c1ccc(Cn2ccc3c4c(N)nc(NC5CC5)nc4ccc32)cc1 [SCH-79797]
- % Hemolysis, Mean ([2]; 0.78125 ug/mL): 0.2789%
- % Hemolysis, Mean ([2]; 1.5625 ug/mL): -0.7082%
- % Hemolysis, Mean ([2]; 3.125 ug/mL): -0.9423%
- % Hemolysis, Mean ([2]; 6.25 ug/mL): 0.9543%
- % Hemolysis, Mean ([2]; 12.5 ug/mL): 20.9447%
- % Hemolysis, Mean ([2]; 25 ug/mL): 53.6334%
- % Hemolysis, Mean ([2]; 50 ug/mL): 64.7041%

Molecule: C[C@@H](O)[C@H]1C(=O)N2C(C(=O)O)=C(S[C@@H]3CN[C@H](C(=O)N(C)C)C3)[C@H](C)[C@H]12 [meropenem]
- clinical isolates resistant [3]: 74.0%
- % Growth ([3]; Isolate# 1): 113.227%
- % Growth ([3]; Isolate# 2): 104.859%
- % Growth ([3]; Isolate# 3): 93.4328%
- % Growth ([3]; Isolate# 4): 45.5006%
- % Growth ([3]; Isolate# 5): 93.4656%
- % Growth ([3]; Isolate# 6): 77.5947%
- % Growth ([3]; Isolate# 7): 101.901%
- % Growth ([3]; Isolate# 8): 45.9194%
- % Growth ([3]; Isolate# 9): 53.5808%
- % Growth ([3]; Isolate# 10): 5.367%
- % Growth ([3]; Isolate# 11): 99.5105%
- % Growth ([3]; Isolate# 12): 98.7175%
- % Growth ([3]; Isolate# 13): 37.9571%
- % Growth ([3]; Isolate# 14): 104.583%
- % Growth ([3]; Isolate# 15): 111.823%
- % Growth ([3]; Isolate# 16): 82.8716%
- % Growth ([3]; Isolate# 17): 101.338%
- % Growth ([3]; Isolate# 18): 69.0131%
- % Growth ([3]; Isolate# 19): 139.474%
- % Growth ([3]; Isolate# 20): 102.365%
- % Growth ([3]; Isolate# 21): 105.977%
- % Growth ([3]; Isolate# 22): 100%
- % Growth ([3]; Isolate# 23): 99.084%
- % Growth ([3]; Isolate# 24): 101.66%
- % Growth ([3]; Isolate# 25): 0.3832%
- % Growth ([3]; Isolate# 26): 108.084%
- % Growth ([3]; Isolate# 27): 90.2732%
- % Growth ([3]; Isolate# 28): 50.4713%
- % Growth ([3]; Isolate# 29): 81.8075%
- % Growth ([3]; Isolate# 30): 25.5041%
- % Growth ([3]; Isolate# 31): 2.581%
- % Growth ([3]; Isolate# 32): 49.1417%
- % Growth ([3]; Isolate# 33): 0%
- % Growth ([3]; Isolate# 34): 7.796%
- % Growth ([3]; Isolate# 35): 0.5421%
- % Growth ([3]; Isolate# 36): 34.6796%
- % Growth ([3]; Isolate# 37): 97.561%
- % Growth ([3]; Isolate# 38): 159.815%
- % Growth ([3]; Isolate# 39): 38.9532%
- % Growth ([3]; Isolate# 40): 99.0807%
- % Growth ([3]; Isolate# 41): 94.6179%
- % Growth ([3]; Isolate# 42): 57.1194%
- % Growth ([3]; Isolate# 43): 47.1218%
- % Growth ([3]; Isolate# 44): 108.201%
- % Growth ([3]; Isolate# 45): 95.4718%
- % Growth ([3]; Isolate# 46): 98.3594%
- % Growth ([3]; Isolate# 47): 114.345%
- % Growth ([3]; Isolate# 48): 88.9096%
- % Growth ([3]; Isolate# 49): 96.2021%
- % Growth ([3]; Isolate# 50): 122.491%
- % Growth ([3]; Isolate# 51): 46.991%
- % Growth ([3]; Isolate# 52): 2.293%
- % Growth ([3]; Isolate# 53): 3.543%
- % Growth ([3]; Isolate# 54): 4.738%
- % Growth ([3]; Isolate# 55): 0%
- % Growth ([3]; Isolate# 56): 121.285%
- % Growth ([3]; Isolate# 57): 61.1775%
- % Growth ([3]; Isolate# 58): 74.7799%
- % Growth ([3]; Isolate# 59): 114.529%
- % Growth ([3]; Isolate# 60): 144.06%
- % Growth ([3]; Isolate# 61): 63.8412%
- % Growth ([3]; Isolate# 62): 95.6203%
- % Growth ([3]; Isolate# 63): 0%
- % Growth ([3]; Isolate# 64): 0.5899%
- % Growth ([3]; Isolate# 65): 0.9518%
- % Growth ([3]; Isolate# 66): 19.8024%
- % Growth ([3]; Isolate# 67): 10.308%
- % Growth ([3]; Isolate# 68): 0.6936%
- % Growth ([3]; Isolate# 69): 5.952%
- % Growth ([3]; Isolate# 70): 25.3374%
- % Growth ([3]; Isolate# 71): 98.2336%
- % Growth ([3]; Isolate# 72): 90.6634%
- % Growth ([3]; Isolate# 73): 0%
- % Growth ([3]; Isolate# 74): 128.066%
- % Growth ([3]; Isolate# 75): 2.406%
- % Growth ([3]; Isolate# 76): 11.0259%
- % Growth ([3]; Isolate# 77): 28.4071%

Molecule: gentamycin
- clinical isolates resistant [3]: 35.0%
- % Growth ([3]; Isolate# 1): 0.6518%
- % Growth ([3]; Isolate# 2): 105.422%
- % Growth ([3]; Isolate# 3): 61.3464%
- % Growth ([3]; Isolate# 4): 179.172%
- % Growth ([3]; Isolate# 5): 0%
- % Growth ([3]; Isolate# 6): 89.7261%
- % Growth ([3]; Isolate# 7): 110.349%
- % Growth ([3]; Isolate# 8): 97.3307%
- % Growth ([3]; Isolate# 9): 0%
- % Growth ([3]; Isolate# 10): 0%
- % Growth ([3]; Isolate# 11): 111.492%
- % Growth ([3]; Isolate# 12): 30.6669%
- % Growth ([3]; Isolate# 13): 9.611%
- % Growth ([3]; Isolate# 14): 99.0331%
- % Growth ([3]; Isolate# 15): 99.6274%
- % Growth ([3]; Isolate# 16): 86.3373%
- % Growth ([3]; Isolate# 17): 0.5763%
- % Growth ([3]; Isolate# 18): 84.8111%
- % Growth ([3]; Isolate# 19): 0%
- % Growth ([3]; Isolate# 20): 92.394%
- % Growth ([3]; Isolate# 21): 106.701%
- % Growth ([3]; Isolate# 22): 98.4485%
- % Growth ([3]; Isolate# 23): 0%
- % Growth ([3]; Isolate# 24): 0%
- % Growth ([3]; Isolate# 25): 0%
- % Growth ([3]; Isolate# 26): 111.123%
- % Growth ([3]; Isolate# 27): 88.2969%
- % Growth ([3]; Isolate# 28): 0%
- % Growth ([3]; Isolate# 29): 0%
- % Growth ([3]; Isolate# 30): 1.897%
- % Growth ([3]; Isolate# 31): 0%
- % Growth ([3]; Isolate# 32): 104.806%
- % Growth ([3]; Isolate# 33): 0%
- % Growth ([3]; Isolate# 34): 0%
- % Growth ([3]; Isolate# 35): 0%
- % Growth ([3]; Isolate# 36): 0%
- % Growth ([3]; Isolate# 37): 95.3633%
- % Growth ([3]; Isolate# 38): 100.4%
- % Growth ([3]; Isolate# 39): 0%
- % Growth ([3]; Isolate# 40): 0%
- % Growth ([3]; Isolate# 41): 0%
- % Growth ([3]; Isolate# 42): 0%
- % Growth ([3]; Isolate# 43): 82.8316%
- % Growth ([3]; Isolate# 44): 5.792%
- % Growth ([3]; Isolate# 45): 88.2389%
- % Growth ([3]; Isolate# 46): 13.0256%
- % Growth ([3]; Isolate# 47): 70.0551%
- % Growth ([3]; Isolate# 48): 0%
- % Growth ([3]; Isolate# 49): 0%
- % Growth ([3]; Isolate# 50): 2.976%
- % Growth ([3]; Isolate# 51): 0%
- % Growth ([3]; Isolate# 52): 0%
- % Growth ([3]; Isolate# 53): 0%
- % Growth ([3]; Isolate# 54): 0.0248%
- % Growth ([3]; Isolate# 55): 142.857%
- % Growth ([3]; Isolate# 56): 0%
- % Growth ([3]; Isolate# 57): 61.626%
- % Growth ([3]; Isolate# 58): 0.9683%
- % Growth ([3]; Isolate# 59): 34.5167%
- % Growth ([3]; Isolate# 60): 0%
- % Growth ([3]; Isolate# 61): 0%
- % Growth ([3]; Isolate# 62): 0%
- % Growth ([3]; Isolate# 63): 0%
- % Growth ([3]; Isolate# 64): 0%
- % Growth ([3]; Isolate# 65): 0%
- % Growth ([3]; Isolate# 66): 0%
- % Growth ([3]; Isolate# 67): 0%
- % Growth ([3]; Isolate# 68): 0%
- % Growth ([3]; Isolate# 69): 0.2922%
- % Growth ([3]; Isolate# 70): 0%
- % Growth ([3]; Isolate# 71): 0%
- % Growth ([3]; Isolate# 72): 106.187%
- % Growth ([3]; Isolate# 73): 0%
- % Growth ([3]; Isolate# 74): 0%
- % Growth ([3]; Isolate# 75): 0%
- % Growth ([3]; Isolate# 76): 0.1836%
- % Growth ([3]; Isolate# 77): 1.314%

Molecule: polymixin B
- PA14 CFU/mL, Mean ([4]; Time 0 h): 197000 CFU/mL
- PA14 CFU/mL, Mean ([4]; Time 1 h): 81.6667 CFU/mL
- PA14 CFU/mL, Mean ([4]; Time 2 h): 17.7778 CFU/mL
- PA14 CFU/mL, Mean ([4]; Time 4 h): 20 CFU/mL
